Assay results from patent US12616753B2, “HSP70 inhibitors and methods of using same” (THE WISTAR INSTITUTE, priority 2020, dated 2026).

Experiments:
[1] = molecular target: T1, HSP70 (Homo sapiens, UniProt P0DMV8); assay: HSP70 competition assay in H1299 cells; format: binding; details: 10 μM, one-hour pre-incubation
T1 construct: BAP-4-139B successfully precipitated a single protein from H1299 cells; endogenous in cells; host or cells: H1299 human lung carcinoma cells
Procedure: FIGS. 1A-1D show ATPase inhibition and direct binding of a novel HSP70 inhibitor. FIG. 1A: Compounds AP-3-97 and AP-4-139B are direct inhibitors of HSP70. HSP70 mediated ATPase activity was assessed using the TRANSCREENER® ADP-FI assay. Five microliters of 30 nM purified human HSP70 in assay buffer was added to test compounds for 30 minutes, followed by addition of excess ATP. After 15 minutes, reactions were stopped and fluorescence was assessed on a plate reader. Data are normalized to percent inhibition, where 100% is the value in the absence of HSP70, and 0% is the value in the presence of HSP70. Compounds shown include PET-16 (positive control) and the novel HSP70 inhibitors AP-3-97 and AP-4-139B. VY-3-277 was used as a negative control. FIG. 1B: Compound AP-4-139B binds HSP70. Whole cell extracts (WCE) from H1299 cells were incubated with 10 μM Biotin or with a Biotin-labeled variant of AP-4-139B (Biotin-AP-4-139B) for 5 hours. Biotin-AP-4-139B containing complexes were captured using NeutrAvidin resins and separated by SDS-PAGE. The Coomassie-stained protein band of approximately 70 kDa was excised and subjected to tryptic digestion and liquid chromatography-tandem mass spectrometry, and identified to be HSP70. […] Data were analyzed using the evaluation software from Biacore and the resulting sensograms were exported and re-plotted in GraphPad Prism. […]

[2] = test system: IMR90 and CCD 841 CoN cells; assay: Seahorse XF Cell Mito Stress Test, normal cells; format: cell-based, human; details: 500 nM (sublethal), 24 hours
Procedure: FIG. 2A: IMR90 cells (non-transformed fibroblasts), 1205Lu (melanoma), and HT-29 (CRC) cancer cells were treated with sub-lethal doses (500 nM) of the HSP70 inhibitors PET-16 (positive control) or AP-4-139B for 24 hours. Cells were then subjected to the Seahorse Mito Stress Test Assay. Injections were Oligomycin (1 μM, line A), FCPP (0.5-1 μM, line B), and Rotenone/Antimycin A (1 μM, line C). Each graphical representation indicates the mean±standard deviation of a minimum of 5 technical replicates. […] Each experiment was performed in triplicate and independently repeated twice. FIGS. 2B-2D: Basal Oxygen Consumption Rate (ORC) (FIG. 2B), Maximal OCR (FIG. 2C), and ATP production (FIG. 2D) were analyzed in IMR90 fibroblasts, non-transformed colonic epithelial cells (CCD 841 CoN), 1205Lu melanoma cells and HT-29 CRC cells, in the presence or absence of 500 nM HSP70 inhibitors or negative control (VY-3-277). All experiments were performed in triplicate, with each group containing 5-6 technical replicates. ** p<0.01, *** p<0.001, n.s. not significant.
The XF Cell Mito Stress Test was performed. […] For extracellular ATP release, ATP was measured using the CellTiter-Glo Kit (Promega catalog #G7570). […] 10 μl of CellTiter-Glo Reaction Mix was then mixed with 10 μl of culture media; the luminescence signal was detected using a luminometer.

T1 sequence (P0DMV8 whole entry): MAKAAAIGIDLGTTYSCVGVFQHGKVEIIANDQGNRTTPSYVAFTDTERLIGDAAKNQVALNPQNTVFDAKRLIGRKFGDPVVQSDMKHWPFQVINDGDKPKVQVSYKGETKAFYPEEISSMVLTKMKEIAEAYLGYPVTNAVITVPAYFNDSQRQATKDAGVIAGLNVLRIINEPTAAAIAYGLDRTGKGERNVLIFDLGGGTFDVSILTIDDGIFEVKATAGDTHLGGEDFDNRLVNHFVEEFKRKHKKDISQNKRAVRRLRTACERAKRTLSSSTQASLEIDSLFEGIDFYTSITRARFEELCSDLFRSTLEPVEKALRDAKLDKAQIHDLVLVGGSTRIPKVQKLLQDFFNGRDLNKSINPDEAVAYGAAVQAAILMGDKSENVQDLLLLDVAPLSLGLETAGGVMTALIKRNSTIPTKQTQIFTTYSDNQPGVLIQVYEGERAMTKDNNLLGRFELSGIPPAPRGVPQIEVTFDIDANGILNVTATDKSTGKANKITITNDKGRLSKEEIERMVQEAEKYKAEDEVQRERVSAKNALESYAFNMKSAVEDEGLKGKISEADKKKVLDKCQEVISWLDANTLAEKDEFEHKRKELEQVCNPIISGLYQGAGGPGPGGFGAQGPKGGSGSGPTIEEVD

Row | Structure (SMILES) | prevention of BAP-4-139B pull down of HSP70 [1] | mitochondrial function in normal cells [2]
1 | c1ccc(-c2cn3nc(CCCCCC[P+](c4ccccc4)(c4ccccc4)c4ccccc4)sc3n2)cc1 [AP-4-139B, Triphenyl(6-(6-phenylimidazo[2,1-b][1,3,4]thiadiazol-2-yl)hexyl)phosphonium bromide] | prevented the ability of BAP-4-139B to pull down HSP70 | largely unaffected
2 | C(#C[P+](c1ccccc1)(c1ccccc1)c1ccccc1)c1ccccc1 [PET-16, Triphenyl(phenylethynyl)phosphonium bromide, reference compound] | prevented the ability of BAP-4-139B to pull down HSP70 | largely unaffected
